≈ marks a conversion by molar mass, not a printed value. Like-named read-outs stand apart in the source and are kept apart here. Starred links: 1 amine or outer side, 2 acyl side, 3 side chain; linkers in the order of their positions; H or OH if unused. Positions of bridges follow the written chain, without caps; N, C: chain ends. Residues, ends and D or L forms follow the SMILES beside them. Groups on a side chain read outwards from the residue. *: point of attachment. C20 diacid = O=C(O)CCCCCCCCCCCCCCCCCCC(=O)*; γGlu = O=C(O)[C@H](CCC(=O)[*:2])N[*:1]; AEEA = NCCOCCOCC(=O)O
Assay: Assay (IV) determination of solubility
Format: physicochemical
Protocol: ASSAY (IV)—Determination of Solubility
The polypeptide was dissolved in water at ˜500 nmol/ml and mixed 1:1 with a series of buffers (100 mM glycylglycine pH 3.0, 100 mM glycylglycine pH 4.0, 100 mM glycylglycine pH 5.0, 100 mM bistrispropane pH 6.0, 100 mM bistrispropane pH 6.5, 100 mM bistrispropane pH 7.0, 100 mM bistrispropane pH 7.5, 100 mM bistrispropane pH 8.0). After 18 hours at room temperature the samples were centrifuged and the polypeptide concentration determined by HPLC.

[1] = pH 3, pH 3.0, read-out: Solubility pH 3.0
[2] = pH 4, pH 4.0, 18 hours at room temperature, Table 2, read-out: Solubility pH 4.0
[3] = pH 4, pH 4.0, read-out: Solubility pH 4.0
[4] = pH 5, pH 5.0, read-out: Solubility pH 5.0
[5] = pH 6, pH 6.0, read-out: Solubility pH 6.0
[6] = pH 6.5, pH 6.5, read-out: Solubility pH 6.5
[7] = pH 7, pH 7.0, 18 hours at room temperature, Table 3, read-out: Solubility pH 7.0
[8] = pH 7, pH 7.0, read-out: Solubility pH 7.0
[9] = pH 7.5, pH 7.5, read-out: Solubility pH 7.5
[10] = pH 8, pH 8.0, read-out: Solubility pH 8.0

Row | Compound | solubility [1] [µM] | solubility [2] [µM] | solubility [3] [µM] | solubility [4] [µM] | solubility [5] [µM] | solubility [6] [µM] | solubility [7] [µM] | solubility [8] [µM] | solubility [9] [µM] | solubility [10] [µM]
1 | CC[C@H](C)[C@H](NC(=O)[C@@H]1CCCN1C(=O)CNC(=O)[C@H](Cc1ccccc1)NC(=O)[C@H](CCC(N)=O)NC(=O)[C@H](CCC(N)=O)NC(=O)[C@H](CO)NC(=O)[C@H](CO)NC(=O)[C@H](Cc1c[nH]cn1)NC(=O)[C@H](CCCNC(=N)N)NC(=O)[C@H](CC(C)C)NC(=O)[C@H](Cc1ccccc1)NC(=O)[C@H](CCC(=O)O)NC(=O)[C@H](C)NC(=O)[C@H](CC(C)C)NC(=O)[C@H](CCCNC(=N)N)NC(=O)[C@H](CCC(N)=O)NC(=O)[C@@H](NC(=O)[C@H](C)NC(=O)[C@@H]1CSSC[C@H](NC(=O)[C@H](CCCNC(=N)N)NC(=O)[C@H](CCC(=O)O)NC(=O)[C@H](CCC(=O)O)NC(=O)CC[C@H](NC(=O)CCCCCCCCCCCCCCCCCCC(=O)O)C(=O)O)C(=O)N[C@@H](CC(N)=O)C(=O)N[C@@H]([C@@H](C)O)C(=O)N[C@@H](C)C(=O)N[C@@H]([C@@H](C)O)C(=O)N1)[C@@H](C)O)C(=O)N[C@@H](CC(C)C)C(=O)N1CCC[C@H]1C(=O)N1CCC[C@H]1C(=O)N[C@H](C(=O)N[C@@H](CCC(N)=O)C(=O)N[C@H](C(=O)NCC(=O)N[C@@H](CO)C(=O)N[C@@H](CCC(N)=O)C(=O)N[C@H](C(=O)N1CCC[C@H]1C(N)=O)[C@@H](C)O)C(C)C)[C@@H](C)O [Example 160, N-alpha-[(S)-4-Carboxy-4-(19-carboxynonadecanoylamino)butyryl]-Glu-Glu-[Arg1,Glu14,Arg17,Gln21,Gln22,Gln31,Gln35,Pro37]-pramlintide] ({C20 diacid-γGlu}-EERCNTATCATQRLAEFLRHSSQQFGPILPPTQVGSQTP-NH2; disulfide 4-9) | > 200 | > 200 | > 200 | > 200 | > 200 | > 200 | > 200 | > 200 | > 200 | > 200
2 | CC[C@H](C)[C@H](NC(=O)[C@@H]1CCCN1C(=O)CNC(=O)[C@H](Cc1ccccc1)NC(=O)[C@H](CC(N)=O)NC(=O)[C@H](CO)NC(=O)[C@H](CO)NC(=O)[C@H](CO)NC(=O)[C@H](Cc1c[nH]cn1)NC(=O)[C@H](Cc1c[nH]cn1)NC(=O)[C@H](CC(C)C)NC(=O)[C@H](Cc1ccccc1)NC(=O)[C@H](CCC(=O)O)NC(=O)[C@H](C)NC(=O)[C@H](CC(C)C)NC(=O)[C@H](CCCNC(=N)N)NC(=O)[C@H](CCC(N)=O)NC(=O)[C@@H](NC(=O)[C@H](C)NC(=O)[C@@H]1CSSC[C@H](NC(=O)[C@H](CCCCN)NC(=O)COCCOCCNC(=O)COCCOCCNC(=O)CC[C@H](NC(=O)CCCCCCCCCCCCCCCCCCC(=O)O)C(=O)O)C(=O)N[C@@H](CC(N)=O)C(=O)N[C@@H]([C@@H](C)O)C(=O)N[C@@H](C)C(=O)N[C@@H]([C@@H](C)O)C(=O)N1)[C@@H](C)O)C(=O)N[C@@H](CC(C)C)C(=O)N1CCC[C@H]1C(=O)N1CCC[C@H]1C(=O)N[C@H](C(=O)N[C@@H](CC(N)=O)C(=O)N[C@H](C(=O)NCC(=O)N[C@@H](CO)C(=O)N[C@@H](Cc1c[nH]cn1)C(=O)N[C@H](C(=O)N[C@@H](Cc1ccc(O)cc1)C(N)=O)[C@@H](C)O)C(C)C)[C@@H](C)O [Example 118, N-alpha-[2-(2-{2-[2-(2-{2-[(S)-4-Carboxy-4-(19-carboxyheptadecanoylamino)butyrylamino]ethoxy}ethoxy)acetylamino]ethoxy}ethoxy)acetyl]-[Glu14,His17,Ser21,His35]-pramlintide] ({C20 diacid-γGlu-AEEA-AEEA}-KCNTATCATQRLAEFLHHSSSNFGPILPPTNVGSHTY-NH2; disulfide 2-7) | > 200 | > 200 | > 200 | > 200 | > 200 | 105 (≈ 498 µg/mL) | – | 37 (≈ 175 µg/mL) | 57 (≈ 270 µg/mL) | 117 (≈ 555 µg/mL)
3 | CC(C)C[C@H](NC(=O)[C@H](CCCNC(=N)N)NC(=O)[C@H](CCC(N)=O)NC(=O)[C@@H](NC(=O)[C@H](C)NC(=O)[C@@H]1CSSC[C@H](NC(=O)[C@H](CCCCN)NC(=O)CC[C@H](NC(=O)CCCCCCCCCCCCCCCCCCC(=O)O)C(=O)O)C(=O)N[C@@H](CC(N)=O)C(=O)N[C@@H]([C@@H](C)O)C(=O)N[C@@H](C)C(=O)N[C@@H]([C@@H](C)O)C(=O)N1)[C@@H](C)O)C(=O)N[C@@H](C)C(=O)N[C@@H](CCC(=O)O)C(=O)N[C@@H](Cc1ccccc1)C(=O)N[C@@H](CC(C)C)C(=O)N[C@H](C(=O)N[C@@H](Cc1c[nH]cn1)C(=O)N[C@@H](CO)C(=O)N[C@@H](CO)C(=O)N[C@@H](CO)C(=O)N[C@@H](CO)C(=O)N1CCC[C@H]1C(=O)NCC(=O)N[C@@H](C)C(=O)N1CCC[C@H]1C(=O)N[C@@H](CC(C)C)C(=O)N[C@@H](CO)C(=O)N[C@@H](CO)C(=O)N[C@H](C(=O)N[C@@H](CC(=O)O)C(=O)N[C@H](C(=O)NCC(=O)N[C@@H](CO)C(=O)N[C@@H](CC(=O)O)C(=O)N[C@H](C(=O)N1CCC[C@H]1C(N)=O)[C@@H](C)O)C(C)C)[C@@H](C)O)C(C)C [Example 171, N-alpha-[(S)-4-Carboxy-4-(19-carboxynonadecanoylamino)butyryl]-[Glu14,Ser21,Ser22,Pro23,Ala25,Pro26,Ser28,Ser29,Asp31,Asp35,Pro37]-pramlintide] ({C20 diacid-γGlu}-KCNTATCATQRLAEFLVHSSSSPGAPLSSTDVGSDTP-NH2; disulfide 2-7) | > 200 | > 200 | > 200 | > 200 | > 200 | > 200 | > 200 | > 200 | > 200 | > 200

Results, then the molecule that gave them:

Row | solubility [1] [µM] | solubility [2] [µM] | solubility [3] [µM] | solubility [4] [µM] | solubility [5] [µM] | solubility [6] [µM] | solubility [7] [µM] | solubility [8] [µM] | solubility [9] [µM] | solubility [10] [µM] | Compound
4 | > 200 | – | > 200 | > 200 | 84 (≈ 400 µg/mL) | 3 (≈ 14.3 µg/mL) | – | 2 (≈ 9.52 µg/mL) | 1 (≈ 4.76 µg/mL) | – | CC[C@H](C)[C@H](NC(=O)[C@@H]1CCCN1C(=O)CNC(=O)[C@H](Cc1ccccc1)NC(=O)[C@H](CC(N)=O)NC(=O)[C@H](CCCCNC(=O)COCCOCCNC(=O)COCCOCCNC(=O)CC[C@H](NC(=O)CCCCCCCCCCCCCCCCCCC(=O)O)C(=O)O)NC(=O)[C@H](CO)NC(=O)[C@H](CO)NC(=O)[C@H](Cc1c[nH]cn1)NC(=O)[C@H](Cc1c[nH]cn1)NC(=O)[C@H](CC(C)C)NC(=O)[C@H](Cc1ccccc1)NC(=O)[C@H](CC(N)=O)NC(=O)[C@H](C)NC(=O)[C@H](CC(C)C)NC(=O)[C@H](CCCNC(=N)N)NC(=O)[C@H](CCC(N)=O)NC(=O)[C@@H](NC(=O)[C@H](C)NC(=O)[C@@H]1CSSC[C@H](NC(=O)[C@@H](N)CCCCN)C(=O)N[C@@H](CC(N)=O)C(=O)N[C@@H]([C@@H](C)O)C(=O)N[C@@H](C)C(=O)N[C@@H]([C@@H](C)O)C(=O)N1)[C@@H](C)O)C(=O)N[C@@H](CC(C)C)C(=O)N[C@@H](CO)C(=O)N1CCC[C@H]1C(=O)N[C@H](C(=O)N[C@@H](CC(N)=O)C(=O)N[C@H](C(=O)NCC(=O)N[C@@H](CO)C(=O)N[C@@H](Cc1c[nH]cn1)C(=O)N[C@H](C(=O)N[C@@H](Cc1ccc(O)cc1)C(N)=O)[C@@H](C)O)C(C)C)[C@@H](C)O [Example 141, N-epsilon21-[2-(2-{2-[2-(2-{2-[(S)-4-Carboxy-4-(19-carboxyheptadecanoylamino)butyrylamino]ethoxy}ethoxy)acetylamino]ethoxy}ethoxy)acetyl]-[His17,Lys21,Ser28,His35]-pramlintide] (H-KCNTATCATQRLANFLHHSSK([AEEA-AEEA-γGlu-C20 diacid])NFGPILSPTNVGSHTY-NH2; disulfide 2-7)
5 | > 200 | > 200 | > 200 | > 200 | 1 (≈ 4.79 µg/mL) | 1 (≈ 4.79 µg/mL) | – | 1 (≈ 4.79 µg/mL) | 1 (≈ 4.79 µg/mL) | – | CC[C@H](C)[C@H](NC(=O)[C@@H]1CCCN1C(=O)CNC(=O)[C@H](Cc1ccccc1)NC(=O)[C@H](CC(N)=O)NC(=O)[C@H](CCCCNC(=O)COCCOCCNC(=O)COCCOCCNC(=O)CC[C@H](NC(=O)CCCCCCCCCCCCCCCCCCC(=O)O)C(=O)O)NC(=O)[C@H](CO)NC(=O)[C@H](CO)NC(=O)[C@H](Cc1c[nH]cn1)NC(=O)[C@@H](NC(=O)[C@H](CC(C)C)NC(=O)[C@H](Cc1ccccc1)NC(=O)[C@H](CCC(=O)O)NC(=O)[C@H](C)NC(=O)[C@H](CC(C)C)NC(=O)[C@H](CCCNC(=N)N)NC(=O)[C@H](CCC(N)=O)NC(=O)[C@@H](NC(=O)[C@H](C)NC(=O)[C@@H]1CSSC[C@H](NC(=O)[C@@H](N)CCCCN)C(=O)N[C@@H](CC(N)=O)C(=O)N[C@@H]([C@@H](C)O)C(=O)N[C@@H](C)C(=O)N[C@@H]([C@@H](C)O)C(=O)N1)[C@@H](C)O)C(C)C)C(=O)N[C@@H](CC(C)C)C(=O)N[C@@H](CO)C(=O)N[C@@H](CCCNC(=N)N)C(=O)N[C@H](C(=O)N[C@@H](CC(N)=O)C(=O)N[C@H](C(=O)NCC(=O)N[C@@H](CO)C(=O)N[C@@H](Cc1c[nH]cn1)C(=O)N[C@H](C(=O)N[C@@H](Cc1ccc(O)cc1)C(N)=O)[C@@H](C)O)C(C)C)[C@@H](C)O [Example 147, N-epsilon21-[2-(2-{2-[2-(2-{2-[(S)-4-Carboxy-4-(19-carboxyheptadecanoylamino)butyrylamino]ethoxy}ethoxy)acetylamino]ethoxy}ethoxy)acetyl]-[Glu14,Lys21,Ser28,Arg29,His35]-pramlintide] (H-KCNTATCATQRLAEFLVHSSK([AEEA-AEEA-γGlu-C20 diacid])NFGPILSRTNVGSHTY-NH2; disulfide 2-7)
